Experimental data from US6544540B2, “Base-triggered release microcapsules” (priority 1998, dated 2003).

Experiments:
[1] = tested on: Lygus hesperus; assay: Test 1 A. Contact/Residue Contact, adult bugs in cages sprayed, mortality; type: in vivo
Text: Lygus hesperius was the subject in this test. Adult bugs in cages were sprayed at 250 l/h. There were four replicates of 10 insects for 5 rates of each formulation. Mortality assessments were made at 1, 2, 3, 4, 5, and 6 DAT.

[2] = tested on: Heliothis virescens; assay: Test 1 B. Foliar Persistence, neonate larvae on disks of sprayed detached cotton leaves, mortality; type: in vivo; conditions: cotton leaf disks

Q: For CCOP(=S)(OCC)Oc1nc(Cl)c(Cl)cc1Cl [Chlorpyrifos technical, chlorpyrifos], which “LC50 1DAT” value ([1]; mortality at 1 DAT, sprayed at 250 l/h) is on record?
A: 313 ppm

Q: And the “LC50 2DAT” value ([1]; mortality at 2 DAT, sprayed at 250 l/h)?
A: 310 ppm

Q: What about the “LC50 3DAT” value ([1]; mortality at 3 DAT, sprayed at 250 l/h) of the same molecule?
A: 311 ppm

Q: What about the “LC50 4DAT” value ([1]; mortality at 4 DAT, sprayed at 250 l/h) of the same molecule?
A: 313 ppm

Q: What about the “LC50 5DAT” value ([1]; mortality at 5 DAT, sprayed at 250 l/h) of the same molecule?
A: 313 ppm

Q: What about the “LC50 6DAT” value ([1]; mortality at 6 DAT, sprayed at 250 l/h) of the same molecule?
A: 325 ppm

Q: And the LC50 ([1]; previous test results, Lygus hesperus contact/residue contact)?
A: ~300 ppm

Q: What about the “LC50 Total” value ([2]; Total over 1-3 DAT) of the same molecule?
A: 10.2 ppm

Q: And the “LC50 1DAT” value ([2]; mortality at 1 DAT)?
A: 9.8 ppm

Q: What about the “LC50 2DAT” value ([2]; mortality at 2 DAT) of the same molecule?
A: 8.6 ppm

Q: What about the “LC50 3DAT” value ([2]; mortality at 3 DAT) of the same molecule?
A: 12.2 ppm
